ChEMBL document CHEMBL5543094, “Exploration of P1 and P4 modifications of nirmatrelvir: Design, synthesis, biological evaluation, and X-ray structural studies of SARS-CoV-2 Mpro inhibitors” (Eur J Med Chem, 2024)

Legend:
Format in all cases: functional, organism-based
[1] = test system: SARS-CoV-2; assay: Antiviral activity against SARS-CoV-2 Beta TY8 variant infected in African green monkey Vero E6 cells measured 3 days post infection by WST-8 assay; settings: Severe acute respiratory syndrome coronavirus 2, Beta TY8, Vero C1008, 72 h
[2] = test system: SARS-CoV-2; assay: Antiviral activity against SARS-CoV-2 Gamma TY7 variant infected in African green monkey Vero E6 cells measured 3 days post infection by WST-8 assay; settings: Severe acute respiratory syndrome coronavirus 2, Gamma TY7, Vero C1008, 72 h
[3] = test system: SARS-CoV-2; assay: Antiviral activity against SARS-CoV-2 Delta K1734 variant infected in African green monkey Vero E6 cells measured 3 days post infection by WST-8 assay; settings: Severe acute respiratory syndrome coronavirus 2, Delta K1734, Vero C1008, 72 h
[4] = test system: SARS-CoV-2; assay: Antiviral activity against SARS-CoV-2 Omicron 929 variant infected in African green monkey Vero E6 cells measured 7 days post infection by WST-8 assay; settings: Severe acute respiratory syndrome coronavirus 2, Omicron 929, Vero C1008, 168 h
[5] = test system: SARS-CoV-2; assay: Antiviral activity against SARS-CoV-2 Wuhan 5-2N variant infected in African green monkey Vero E6 cells measured 3 days post infection by WST-8 assay; settings: Severe acute respiratory syndrome coronavirus 2, Wuhan 5-2N, Vero C1008, 72 h
[6] = test system: SARS-CoV-2; assay: Antiviral activity against SARS-CoV-2 Alpha QK002 variant infected in African green monkey Vero E6 cells measured 3 days post infection by WST-8 assay; settings: Severe acute respiratory syndrome coronavirus 2, Alpha QK002, Vero C1008, 72 h

## CCC(CC)COC(=O)[C@H](C)N[P@](=O)(OC[C@H]1O[C@@](C#N)(c2ccc3c(N)ncnn23)[C@H](O)[C@@H]1O)Oc1ccccc1
[1]
  EC50: 2800 nM
[2]
  EC50: 2600 nM
[3]
  EC50: 2900 nM
[4]
  EC50: 4200 nM
[5]
  EC50: 3800 nM
[6]
  EC50: 3500 nM

## CC(C)(C)[C@H](NC(=O)C(F)(F)F)C(=O)N1C[C@H]2[C@@H]([C@H]1C(=O)N[C@H](C#N)C[C@@H]1CCNC1=O)C2(C)C
[1]
  EC50: 3700 nM
[2]
  EC50: 4000 nM
[3]
  EC50: 2900 nM
[4]
  EC50: 3100 nM
[5]
  EC50: 3000 nM
[6]
  EC50: 2500 nM

## CC(C)(C)[C@H](NC(=O)C(Cl)(Cl)Cl)C(=O)N1C[C@H]2[C@@H]([C@H]1C(=O)N[C@H](C#N)C[C@@H]1CCCNC1=O)C2(C)C
[1]
  EC50: 2400 nM
[2]
  EC50: 2000 nM
[3]
  EC50: 600 nM
[4]
  EC50: 4000 nM
[5]
  EC50: 700 nM
[6]
  EC50: 800 nM
